According to patent US20230270113A1, “FUNGICIDAL MIXTURES” (Adama Makhteshim Ltd., priority 2020, published 2023):
Read-outs that look alike come from different tables or passages of the source.

Columns and labels:
[1] = test system: Zymoseptoria tritici Tri-R6 strain; format: in vivo; settings: for residual efficacy of the contact active ingredients after the washing step: 21 and 28 days after inoculation; for efficacy in the untreated area: contact fungicide as partner of FLUXAPYROXAD
Zymoseptoria tritici = assay: Example 28: in planta bioassay of penetration and translocation of QoI with folpet, wheat leaf segments; format: in vivo; settings: example written in the present tense
Venturia inaequalis [2] = assay: Example A: greenhouse control of apple scab, phthalimides with DMI and/or fluopyram; format: in vivo; settings: for % control observed on leaves 26 DAYS after the application / % control observed on leaves 19 DAYS after the application: captan or folpet 1200, difenoconazole 75, tebuconazole 150, fluopyram 150 gAI/ha; for Var % (19/26 DAYS): change of % control from 19 to 26 days
Venturia inaequalis [3] = assay: Example 1b: greenhouse control of apple scab, reduced rates of phthalimides and difenoconazole; format: in vivo; settings: for % control observed on leaves 26 DAYS after the application / % control observed on leaves 19 DAYS after the application: captan or folpet 900, difenoconazole 35, tebuconazole 150, fluopyram 150 gAI/ha
Venturia inaequalis [4] = assay: Example 2: greenhouse control of apple scab, phthalimides with cyprodinil and/or fluxapyroxad; format: in vivo; settings: Table 6; captan or folpet 1200, cyprodinil 300, fluxapyroxad 90 gAI/ha; one spray 1 day before inoculation
Alternaria solani [5] = assay: Example 4: greenhouse control of Alternaria solani in tomato seedlings, phthalimides with DMI and/or fluxapyroxad; format: in vivo; settings: Table 9
Alternaria solani [6] = assay: Example 5: greenhouse control of Alternaria solani in tomato, phthalimides with azoxystrobin and/or fluxapyroxad; format: in vivo
Phytophthora infestans = format: in vivo; settings: tomato
Alternaria solani [7] = assay: Example 6b: greenhouse control of Alternaria solani in potato plants; format: in vivo
Plasmopara viticola [8] = assay: Example 7: greenhouse control of Plasmopara viticola in grape plants, folpet with partners; format: in vivo
Erysiphe necator = assay: Example 9: greenhouse control of Erysiphe necator in grape plants; format: in vivo
Procedure: • An experiment was conducted in controlled conditions under a greenhouse to evaluate the fungicidal activity of the mixture comprising (1) phthalimide fungicide (folpet, captan) and (2) demethylation inhibitor fungicide (difenoconazole) or a quinone outside inhibitors (azoxystrobin, pyraclostrobin), toward Erysiphe necator in grape plants, variety Barbera. In addition, the activity of phthalimide with two fungicides (A); demethylation inhibitor fungicide (difenoconazole) or a quinone outside inhibitors (azoxystrobin, pyraclostrobin and dehydrogenase inhibitor fungicide (fluxapyroxad) was also tested. • The experiment was conducted by applying compositions of fluxapyroxad, difenoconazole (Score® 10 WG), azoxystrobin (Ortiva®), pyraclostrobin (Cabrio® EC) and folpet (Folpan 80 WDG®) alone or together. The compositions were diluted with water. Water amount used was equivalent to 800 L/ha. Application was performed in an automatic spraying cabin equipped with 2 flatfan AI11003VS nozzles. • Treatments: • Folpet 1000 gr (A.I.)/ha • Fluxapyroxad 45 gr (A.I.)/ha • Difenoconazole 37.5 gr (A.I.)/ha • Difenoconazole 37.5 gr (A.I.)/ha+folpet 1000 gr (A.I.)/ha • Azoxystrobin 90 gr (A.I.)/ha • Azoxystrobin 90 gr (A.I.)/ha+folpet 1000 gr (A.I.)/ha • Pyraclostrobin 75 gr (A.I.)/ha • Pyraclostrobin 75 gr (A.I.)/ha+folpet 1000 gr (A.I.)/ha • Fluxapyroxad 45 gr (A.I.)/ha+Difenoconazole 37.5 gr (A.I.)/ha • Fluxapyroxad 45 gr (A.I.)/ha+Difenoconazole 37.5 gr (A.I.)/ha+folpet 1000 gr (A.I.)/ha • Azoxystrobin 90 gr (A.I.)/ha+Fluxapyroxad 45 gr (A.I.)/ha • Azoxystrobin 90 gr (A.I.)/ha+Fluxapyroxad 45 gr (A.I.)/ha+folpet 1000 gr (A.I.)/ha • Azoxystrobin 90 gr (A.I.)/ha+Difenoconazole 37.5 gr (A.I.)/ha • Azoxystrobin 90 gr (A.I.)/ha+Difenoconazole 37.5 gr (A.I.)/ha+folpet 1000 gr (A.I.)/ha • Pyraclostrobin 75 gr (A.I.)/ha+Fluxapyroxad 45 gr (A.I.)/ha • Pyraclostrobin 75 gr (A.I.)/ha+Fluxapyroxad 45 gr (A.I.)/ha+folpet 1000 gr (A.I.)/ha • Pyraclostrobin 75 gr (A.I.)/ha+Difenoconazole 37.5 gr (A.I.)/ha • Pyraclostrobin 75 gr (A.I.)/ha+Difenoconazole 37.5 gr (A.I.)/ha+folpet 1000 gr (A.I.)/ha • To test for fungicidal control of Erysiphe necator, the grape plants were sprayed with each of the above treatments. Each of the above treatments was applied from 4 to 10 times according to the disease development, applications occurring 7-14 days after the previous treatment. The treatments were composed of 4 replicates. • Evaluations were performed for the whole duration of the experiment. At each time the incidence and the severity of Erysiphe necator on plants parts was determined.

Sphaerotheca fuliginea = assay: Example 10: greenhouse control of Sphaerotheca fuliginea on melon plants; format: in vivo
Botrytis cinerea = assay: Example 11: greenhouse control of Botrytis cinerea in strawberry; format: in vivo
Plasmopara viticola [9] = assay: Example 8: greenhouse control of Plasmopara viticola in young grape plants, folpet with potassium phosphonate
Venturia inaequalis [10] = assay: Example 13: greenhouse control of apple scab, fluxapyroxad and captan; format: in vivo
Plasmopara viticola [11] = assay: Example 22: greenhouse control of Plasmopara viticola in grape, fluxapyroxad and folpet; format: in vivo; settings: variety Barbera
[12] = 28 days, comparison with FLUXAPYROXAD alone
[13] = Table 2, one spray 1 day before inoculation, severity based
[14] = Table 4, one spray 1 day before inoculation
[15] = captan or folpet 1200, difenoconazole 75, tebuconazole 150, fluxapyroxad 75 gAI/ha, one spray 1 day before inoculation
[16] = Table 10, captan or folpet 900 gAI/ha
[17] = Table 10, captan or folpet 1200, azoxystrobin 120, fluxapyroxad 75 gAI/ha, one spray 1 day before inoculation

Row | Molecule | residual efficacy of the contact active ingredients after the washing step [1] | efficacy in the untreated area [1, 12] | difference from the untreated control after the washing step, treated and untreated areas (Zymoseptoria tritici) | % control observed on leaves 26 DAYS after the application (Venturia inaequalis [2]; [13]) [%] | % control observed on leaves 19 DAYS after the application (Venturia inaequalis [2]; Table 3) [%] | % control observed on leaves 26 DAYS after the application (Venturia inaequalis [2]; Table 3) [%] | Var % (19/26 DAYS) (Venturia inaequalis [2]; Table 3) [%] | % control observed on leaves 26 DAYS after the application (Venturia inaequalis [3]; [14]) [%] | % control observed on leaves 19 DAYS after the application (Venturia inaequalis [3]; Table 5) [%] | % control observed on leaves 26 DAYS after the application (Venturia inaequalis [3]; Table 5) [%] | % control observed on leaves 26 DAYS after the application (Venturia inaequalis [4]) [%] | % control observed on leaves 20 DAYS after the application (Alternaria solani [5]; captan or folpet 900 gAI/ha) [%] | % control observed on leaves 20 DAYS after the application (Alternaria solani [5]; [15]) [%] | % control observed on leaves 20 DAYS after the application (Alternaria solani [6]; [16]) [%] | % control observed on leaves 20 DAYS after the application (Alternaria solani [6]; [17]) [%] | % control observed on leaves 14 DAYS after the application (Alternaria solani [6]; rate 900 gAI/ha, tomato) [%] | % control observed on leaves 20 DAYS after the application (Alternaria solani [6]; rate 900 gAI/ha, tomato) [%] | Var % (14/20 DAYS) (Alternaria solani [6]; rate 900 gAI/ha, tomato) [%] | % control observed on leaves 14 DAYS after the application (Alternaria solani [6]; rate 1200 gAI/ha, tomato) [%] | % control observed on leaves 20 DAYS after the application (Alternaria solani [6]; rate 1200 gAI/ha, tomato) [%] | also measured
1 | N#Cc1c(Cl)c(Cl)c(Cl)c(C#N)c1Cl [CHLOROTHALONIL, chlorothalonil] | very low | significantly less than when FLUXAPYROXAD is used alone or with FOLPET | no significant difference from the untreated control | – | – | – | – | – | – | – | – | – | – | – | – | – | – | – | – | – | –
2 | O=C1c2ccccc2C(=O)N1SC(Cl)(Cl)Cl [FOLPET, folpet] | very low | – | no significant difference from the untreated control | 72.3 | 80.6 | 72.3 | −10.3 | 73.4 | 82.1 | 73.4 | 64.9 | 50.5 | 63.4 | 56.7 | 65.3 | 67.8 | 56.7 | −16.4 | 79.7 | 65.3 | Var % (14/20 DAYS) (Alternaria solani [6]; rate 1200 gAI/ha, tomato): 18.1%; % control observed on leaves 14 DAYS after the application (Phytophthora infestans; rate 900 gr (A.I.)/ha): 58.3%; % control observed on leaves 14 DAYS after the application (Phytophthora infestans; rate 1200 gr (A.I.)/ha): 70.3%; % control observed on leaves 21 DAYS after the application (Alternaria solani [7]; rate 900 gr (A.I.)/ha): 53.2%; % control observed on leaves 21 DAYS after the application (Alternaria solani [7]; rate 1200 gr (A.I.)/ha): 63.6%; % control observed on leaves 21 DAYS after the application (Plasmopara viticola [8]; rate 1000 gr (A.I.)/ha): 60.3%; % control observed on leaves 21 DAYS after the application (Erysiphe necator; rate 1000 gr (A.I.)/ha): 35.2%; % control observed on leaves 21 DAYS after the application (Sphaerotheca fuliginea; rate 900 gr (A.I.)/ha): 45.3%; % control observed on leaves 21 DAYS after the application (Sphaerotheca fuliginea; rate 1200 gr (A.I.)/ha): 54.0%; % control observed on leaves 21 DAYS after the application (Botrytis cinerea; rate 900 gr (A.I.)/ha): 33.3%; % control observed on leaves 21 DAYS after the application (Botrytis cinerea; rate 1200 gr (A.I.)/ha): 40.8%; % control observed on leaves 28 DAYS after the application (Plasmopara viticola [9]; rate 1050 gAI/ha): 87.7%; % control observed on leaves 28 DAYS after the application (Plasmopara viticola [9]; rate 1200 gAI/ha): 96.9%
3 | potassium phosphonate | – | – | – | – | – | – | – | – | – | – | – | – | – | – | – | – | – | – | – | – | % control observed on leaves 28 DAYS after the application (Plasmopara viticola [9]; rate 1575 gAI/ha): 31.7%; % control observed on leaves 28 DAYS after the application (Plasmopara viticola [9]; rate 1800 gAI/ha): 40.9%
4 | S1SSSSSSS1 [SULPHUR] | very low | significantly less than when FLUXAPYROXAD is used alone or with FOLPET | no significant difference from the untreated control | – | – | – | – | – | – | – | – | – | – | – | – | – | – | – | – | – | –
5 | Cn1cc(C(=O)Nc2ccccc2-c2cc(F)c(F)c(F)c2)c(C(F)F)n1 [FLUXAPIROXAD, fluxapyroxad] | – | – | – | – | – | – | – | – | – | – | 75 | – | 60.4 | – | 66.6 | – | – | – | – | – | % control observed on leaves 14 DAYS after the application (Alternaria solani [6]; rate 75 gAI/ha, tomato): 75.3%; % control observed on leaves 20 DAYS after the application (Alternaria solani [6]; rate 75 gAI/ha, tomato): 66.6%; Var % (14/20 DAYS) (Alternaria solani [6]; rate 75 gAI/ha, tomato): −11.6%; % control observed on leaves 21 DAYS after the application (Plasmopara viticola [8]; rate 45 gr (A.I.)/ha): 35.1%; % control observed on leaves 21 DAYS after the application (Erysiphe necator; rate 45 gr (A.I.)/ha): 68.7%; % control observed on leaves 21 DAYS after the application (Sphaerotheca fuliginea; rate 75 gr (A.I.)/ha): 72.5%; % control observed on leaves 26 DAYS after the application (Venturia inaequalis [10]; rate 45 gAI/ha): 38.6%; % control observed on leaves 26 DAYS after the application (Venturia inaequalis [10]; rate 55 gAI/ha): 61.7%; % control observed on leaves 26 DAYS after the application (Venturia inaequalis [10]; rate 75 gAI/ha): 78.4%; % control observed on leaves 26 DAYS after the application (Venturia inaequalis [10]; rate 90 gAI/ha): 86.6%; effect against Plasmopara viticola (Plasmopara viticola [11]): limited effect; efficacy in the treated area [1, 12]: better protection than when used with SULPHUR or CHLOROTHALONIL
6 | O=C1C2CC=CCC2C(=O)N1SC(Cl)(Cl)Cl (stereo not shown) [CAPTAN, captan] | – | – | – | 75.9 | 82.6 | 75.9 | −8.1 | 77 | 83.9 | 77 | 68.3 | 51.3 | 64.3 | 54.5 | 65.9 | 64.9 | 54.5 | −16.0 | 76 | 65.9 | Var % (19/26 DAYS) (Venturia inaequalis [3]; Table 5, change of % control from 19 to 26 days): −8.2%; Var % (14/20 DAYS) (Alternaria solani [6]; rate 1200 gAI/ha, tomato): −13.3%; % control observed on leaves 14 DAYS after the application (Phytophthora infestans; rate 900 gr (A.I.)/ha): 57.0%; % control observed on leaves 14 DAYS after the application (Phytophthora infestans; rate 1200 gr (A.I.)/ha): 72.4%; % control observed on leaves 21 DAYS after the application (Alternaria solani [7]; rate 900 gr (A.I.)/ha): 54.1%; % control observed on leaves 21 DAYS after the application (Alternaria solani [7]; rate 1200 gr (A.I.)/ha): 64.8%; % control observed on leaves 26 DAYS after the application (Venturia inaequalis [10]; rate 600 gAI/ha): 50.4%; % control observed on leaves 26 DAYS after the application (Venturia inaequalis [10]; rate 900 gAI/ha): 68.1%; % control observed on leaves 26 DAYS after the application (Venturia inaequalis [10]; rate 1200 gAI/ha): 78.5%; % control observed on leaves 26 DAYS after the application (Venturia inaequalis [10]; rate 1500 gAI/ha): 89.1%
